Reference: patent publication US9963455B2, “Pyrazolo[1,5-a]pyrimidines as antiviral compounds” (Curovir AB, priority 2014, dated 2018)

What was measured:
Assay type in all cases: cell-based
[1] = test system: coxsackie B virus strain 2; assay: CPE inhibition in mammalian cell culture, Cox-B2; settings: read-out: % inh.
[2] = test system: polio virus strain 1; assay: organism not typed; settings: read-out: % inh.
[3] = test system: Ljungan virus strain 145; assay: CPE inhibition in mammalian cell culture, LV145; settings: Parechovirus B; for inhibition at 10 µM: LV145, Conc. 10.0 μM

Row | SMILES | inhibition at 10 µM [2] [%] | inhibition at 1 µM [2] [%] | also measured
1 | COc1ccc(CCNc2cc(C)nc3c(-c4ccc(C)cc4)cnn23)cc1OC [Ex. 29, N-[2-(3,4-dimethoxyphenyl)ethyl]-5-methyl-3-(p-tolyl)pyrazolo[1,5-a]pyrimidin-7-amine] |  |  | inhibition at 10 µM [1]: 62%
2 | CC(C)(C)c1cc(NCCCn2ccnc2)n2ncc(-c3ccccc3)c2n1 [Ex. 23, 5-tert-butyl-N-(3-imidazol-1-ylpropyl)-3-phenyl-pyrazolo[1,5-a]pyrimidin-7-amine] | 94 |  | 
3 | COc1ccc(-c2c(C)nn3c(Nc4ccc(Cl)c(Cl)c4)cc(C)nc23)cc1OC [Ex. 59, N-(3,4-dichlorophenyl)-3-(3,4-dimethoxyphenyl)-2,5-dimethyl-pyrazolo[1,5-a]pyrimidin-7-amine] |  |  | inhibition at 10 µM [1]: 88%
4 | COc1ccc(-c2c(C)nn3c(NCCc4ccncc4)cc(C)nc23)cc1OC [Ex. 89, 3-(3,4-dimethoxyphenyl)-2,5-dimethyl-N-[2-(4-pyridyl)ethyl]pyrazolo[1,5-a]pyrimidin-7-amine] |  |  | inhibition at 1 µM [1]: 100%
5 | Cc1cc(NCCc2ccccc2)n2ncc(-c3ccc(Cl)cc3)c2n1 [Ex. 26, 3-(4-chlorophenyl)-5-methyl-N-phenethyl-pyrazolo[1,5-a]pyrimidin-7-amine] |  |  | inhibition at 10 µM [1]: 30%
6 | CCOc1ccc(-c2c(C)nn3c(NCc4ccc(F)cc4)cc(C)nc23)cc1OCC [Ex. 109, 3-(3,4-diethoxyphenyl)-N-[(4-fluorophenyl)methyl]-2,5-dimethyl-pyrazolo[1,5-a]pyrimidin-7-amine] |  | 88 | 
7 | COc1ccc(-c2c(C)nn3c(Nc4ccc(C)c(Cl)c4)cc(C)nc23)cc1OC [Ex. 55, N-(3-chloro-4-methyl-phenyl)-3-(3,4-dimethoxyphenyl)-2,5-dimethyl-pyrazolo[1,5-a]pyrimidin-7-amine] |  |  | inhibition at 1 µM ([3]; LV145, Conc. 1.0 μM): 41%
8 | CCc1nn2c(NCCc3ccc(OC)c(OC)c3)cc(C)nc2c1-c1ccccc1 [Ex. 30, N-[2-(3,4-dimethoxyphenyl)ethyl]-2-ethyl-5-methyl-3-phenyl-pyrazolo[1,5-a]pyrimidin-7-amine] |  |  | inhibition at 10 µM [3]: 100%
9 | COc1ccc(-c2c(C)nn3c(NCCCn4ccnc4)cc(C)nc23)cc1 [Ex. 67, N-(3-imidazol-1-ylpropyl)-3-(4-methoxyphenyl)-2,5-dimethyl-pyrazolo[1,5-a]pyrimidin-7-amine] |  | 63 | 
10 | Cc1cc(NCc2ccccc2)n2ncc(-c3ccccc3)c2n1 [Ex. 21, N-benzyl-5-methyl-3-phenyl-pyrazolo[1,5-a]pyrimidin-7-amine] | 78 |  | 
11 | COc1ccc(-c2c(C)nn3c(Nc4ccc(C)cc4)cc(C)nc23)cc1OC [Ex. 48, 3-(3,4-dimethoxyphenyl)-2,5-dimethyl-N-(p-tolyl)pyrazolo[1,5-a]pyrimidin-7-amine] |  | 79 | 
12 | CCc1nn2c(NCCCn3ccnc3)cc(C)nc2c1-c1ccccc1 [Ex. 31, 2-ethyl-N-(3-imidazol-1-ylpropyl)-5-methyl-3-phenyl-pyrazolo[1,5-a]pyrimidin-7-amine] |  |  | inhibition at 10 µM [3]: 14%
13 | COc1ccc(-c2c(C)nn3c(Nc4ccc(C)c(C)c4)cc(C)nc23)cc1OC [Ex. 52, 3-(3,4-dimethoxyphenyl)-N-(3,4-dimethylphenyl)-2,5-dimethyl-pyrazolo[1,5-a]pyrimidin-7-amine] |  |  | inhibition at 10 µM [3]: 63%
14 | COc1ccc(-c2c(C)nn3c(Nc4cccc(C)c4)cc(C)nc23)cc1OC [Ex. 50, 3-(3,4-dimethoxyphenyl)-2,5-dimethyl-N-(m-tolyl)pyrazolo[1,5-a]pyrimidin-7-amine] |  | 81 | 
15 | Cc1cc(NCCCn2ccnc2)n2nc(C)c(-c3cccs3)c2n1 [Ex. 71, N-(3-imidazol-1-ylpropyl)-2,5-dimethyl-3-(2-thienyl)pyrazolo[1,5-a]pyrimidin-7-amine] | 72 |  | 
16 | Cc1cc(NCCCn2ccnc2)n2ncc(-c3ccc(Cl)cc3)c2n1 [Ex. 28, 3-(4-chlorophenyl)-N-(3-imidazol-1-ylpropyl)-5-methyl-pyrazolo[1,5-a]pyrimidin-7-amine] | 72 |  | 
17 | Cc1cc(NCc2ccccn2)n2nc(C)c(-c3ccc(F)cc3)c2n1 [Ex. 37, 3-(4-fluorophenyl)-2,5-dimethyl-N-(2-pyridylmethyl)pyrazolo[1,5-a]pyrimidin-7-amine] |  |  | inhibition at 10 µM [1]: 78%
18 | CCOc1ccc(Nc2cc(C)nc3c(-c4ccc(OC)c(OC)c4)c(C)nn23)cc1 [Ex. 54, 3-(3,4-dimethoxyphenyl)-N-(4-ethoxyphenyl)-2,5-dimethyl-pyrazolo[1,5-a]pyrimidin-7-amine] |  | 89 | 
19 | CCCc1cc(NCCCn2ccnc2)n2nc(C)c(-c3ccccc3)c2n1 [Ex. 24, N-(3-imidazol-1-ylpropyl)-2-methyl-3-phenyl-5-propyl-pyrazolo[1,5-a]pyrimidin-7-amine] | 86 |  | 
20 | COc1ccc(CCNc2cc(C)nc3c(-c4ccc(Cl)cc4)cnn23)cc1OC [Ex. 27, 3-(4-chlorophenyl)-N-[2-(3,4-dimethoxyphenyl)ethyl]-5-methyl-pyrazolo[1,5-a]pyrimidin-7-amine] | 35 |  | 

Row | SMILES | inhibition at 10 µM [2] [%] | inhibition at 1 µM [2] [%] | also measured
21 | COc1ccc(-c2c(C)nn3c(NCc4cccnc4)cc(C)nc23)cc1 [Ex. 65, 3-(4-methoxyphenyl)-2,5-dimethyl-N-(3-pyridylmethyl)pyrazolo[1,5-a]pyrimidin-7-amine] |  |  | inhibition at 1 µM [1]: 91%
22 | COC(=O)c1ccc(-c2c(C)nn3c(NCc4ccc(F)cc4)cc(C)nc23)cc1 [Ex. 107, methyl 4-[7-[(4-fluorophenyl)methylamino]-2,5-dimethyl-pyrazolo[1,5-a]pyrimidin-3-yl]benzoate] |  | 21 | 
23 | COc1ccc(-c2c(C)nn3c(NCc4ccnc(C)n4)cc(C)nc23)cc1OC [Ex. 87, 3-(3,4-dimethoxyphenyl)-2,5-dimethyl-N-[(2-methylpyrimidin-4-yl)methyl]pyrazolo[1,5-a]pyrimidin-7-amine] |  |  | inhibition at 0.1 µM [2]: 100%
24 | CCc1ccc(Nc2cc(C)nc3c(-c4ccc(OC)c(OC)c4)c(C)nn23)cc1 [Ex. 62, 3-(3,4-dimethoxyphenyl)-N-(4-ethylphenyl)-2,5-dimethyl-pyrazolo[1,5-a]pyrimidin-7-amine] |  | 97 | 
25 | Cc1cc(NCc2ccncc2)n2nc(C)c(-c3cccs3)c2n1 [Ex. 70, 2,5-dimethyl-N-(4-pyridylmethyl)-3-(2-thienyl)pyrazolo[1,5-a]pyrimidin-7-amine] | 89 |  | 
26 | COc1ccc(-c2c(C)nn3c(Nc4ccc(NC(C)=O)cc4)cc(C)nc23)cc1OC [Ex. 58, N-[4-[[3-(3,4-dimethoxyphenyl)-2,5-dimethyl-pyrazolo[1,5-a]pyrimidin-7-yl]amino]phenyl]acetamide] |  |  | inhibition at 0.1 µM [2]: 74%
27 | COc1ccc(-c2c(C)nn3c(Nc4ccc(F)cc4)cc(C)nc23)cc1OC [Ex. 53, 3-(3,4-dimethoxyphenyl)-N-(4-fluorophenyl)-2,5-dimethyl-pyrazolo[1,5-a]pyrimidin-7-amine] | 84 |  | 
28 | Cc1ccc(CCNc2cc(C)nc3c(-c4ccc(Cl)cc4)c(C)nn23)cc1 [Ex. 32, 3-(4-chlorophenyl)-2,5-dimethyl-N-[2-(p-tolyl)ethyl]pyrazolo[1,5-a]pyrimidin-7-amine] | 25 |  | 
29 | COc1ccc(CCNc2cc(C)nc3c(-c4ccc(F)cc4)c(C)nn23)cc1OC [Ex. 15, N-[2-(3,4-dimethoxyphenyl)ethyl]-3-(4-fluorophenyl)-2,5-dimethyl-pyrazolo[1,5-a]pyrimidin-7-amine] | 75 |  | 
30 | Cc1cc(NCc2cccnc2)n2nc(C)c(-c3ccccc3)c2n1 [Ex. 39, 2,5-dimethyl-3-phenyl-N-(3-pyridylmethyl)pyrazolo[1,5-a]pyrimidin-7-amine] |  | 71 | 
31 | Cc1cc(NCc2ccccn2)n2nc(C)c(-c3ccc(Cl)cc3)c2n1 [Ex. 42, 3-(4-chlorophenyl)-2,5-dimethyl-N-(2-pyridylmethyl)pyrazolo[1,5-a]pyrimidin-7-amine] |  | 96 | 
32 | Cc1cc(NCCCn2ccnc2)n2nc(C)c(-c3ccc(Cl)cc3)c2n1 [Ex. 44, 3-(4-chlorophenyl)-N-(3-imidazol-1-ylpropyl)-2,5-dimethyl-pyrazolo[1,5-a]pyrimidin-7-amine] |  | 70 | 
33 | Cc1cc(NCc2ccccc2)n2ncc(-c3ccc(F)cc3)c2n1 [Ex. 18, N-benzyl-3-(4-fluorophenyl)-5-methyl-pyrazolo[1,5-a]pyrimidin-7-amine] | 51 |  | 
34 | Cc1cc(NCCc2ccccc2)n2nc(C)c(-c3ccc(F)cc3)c2n1 [Ex. 14, 3-(4-fluorophenyl)-2,5-dimethyl-N-phenethyl-pyrazolo[1,5-a]pyrimidin-7-amine] | 73 |  | 
35 | COc1ccc(-c2c(C)nn3c(Nc4cc(Cl)cc(Cl)c4)cc(C)nc23)cc1OC [Ex. 64, N-(3,5-dichlorophenyl)-3-(3,4-dimethoxyphenyl)-2,5-dimethyl-pyrazolo[1,5-a]pyrimidin-7-amine] |  | 20 | 
36 | COc1ccc(-c2c(C)nn3c(NCc4ccncc4)cc(C)nc23)cc1 [Ex. 66, 3-(4-methoxyphenyl)-2,5-dimethyl-N-(4-pyridylmethyl)pyrazolo[1,5-a]pyrimidin-7-amine] |  |  | inhibition at 0.01 µM [2]: 100%
37 | COc1ccc(Nc2cc(C)nc3c(-c4ccc(OC)c(OC)c4)c(C)nn23)cc1 [Ex. 49, 3-(3,4-dimethoxyphenyl)-N-(4-methoxyphenyl)-2,5-dimethyl-pyrazolo[1,5-a]pyrimidin-7-amine] |  |  | inhibition at 1 µM [1]: 80%
38 | Cc1cc(NCc2cccnc2)n2nc(C)c(-c3cccs3)c2n1 [Ex. 69, 2,5-dimethyl-N-(3-pyridylmethyl)-3-(2-thienyl)pyrazolo[1,5-a]pyrimidin-7-amine] |  |  | inhibition at 10 µM [1]: 65%
39 | COc1ccc(CCNc2cc(C)nc3c(-c4ccccc4)cnn23)cc1OC [Ex. 22, N-[2-(3,4-dimethoxyphenyl)ethyl]-5-methyl-3-phenyl-pyrazolo[1,5-a]pyrimidin-7-amine] |  |  | inhibition at 10 µM [1]: 44%
40 | CCCCc1ccc(Nc2cc(C)nc3c(-c4ccc(OC)c(OC)c4)c(C)nn23)cc1 [Ex. 63, N-(4-butylphenyl)-3-(3,4-dimethoxyphenyl)-2,5-dimethyl-pyrazolo[1,5-a]pyrimidin-7-amine] |  | 87 | 
